Measured values published in US20160144031A1, “Photo-Responsive Compounds” (priority 2013, published 2016).

What was measured:
[1] = Photolysis rate comparison: Xe flash lamp, 546±10 nm, conversion to hydroxocobalamin monitored at 350 nm; format: physicochemical; details: 10 μM
Description: General procedure: Photolysis was performed using an Oriel Xe flash lamp (800 mJ, 62 Hz) with a selective bandpass filter for 546±10 nm. The conversion of alkylcobalamin to hydroxocoabalmin was determined by monitoring the absorption of the mixture at 350 nm using Perkin Elemer Lambda 2 UV/Vis spectrophotometer. (Taylor, R. T.; Smucker, L.; Hanna, M. L.; Gill, J. Arch. Biochem. Biophys. 1973, 156, 521-533.)

[2] = Photolysis (Xe flash lamp, bandpass filters) and dark storage assessed by UV-Vis and LC/MS; format: physicochemical; details: for photolysis at 546 nm (LC/MS): 546±10 nm (20 min); for photolysis at 546 nm (LC/MS) / photolysis at 646 nm (UV-Vis, LC/MS) / photolysis at 730 nm (LC/MS) / photolysis at 780 nm (LC/MS): 10 μM; for photolysis at 646 nm (UV-Vis, LC/MS): 646±10 nm (20 min); for photolysis at 730 nm (LC/MS): 730±10 nm (150 min); for photolysis at 780 nm (LC/MS): 780±10 nm (3 h)
Description: […] The conversion of alkylcobalamin to hydroxocoabalmin was determined by monitoring the absorption of the mixture at 350 nm using Perkin Elemer Lambda 2 UV/Vis spectrophotometer. (Taylor, R. T.; Smucker, L.; Hanna, M. L.; Gill, J. Arch. Biochem. Biophys. 1973, 156, 521-533.)
[…] The resulting sample (100 μL) was analyzed by LC/MS using a linear gradient binary solvent system (solvent A: 0.1% formic acid/H2O; solvent B: 0.1% formic acid/CH3CN) with a ratio of A:B that varied from 97:3 (0-5 min) to 3:97 (5-18 min).

HeLa cells = assay: Treatment of HeLa cells with colchicine (tubulin staining); format: cell-based; details: increasing colchicine
Description: Treatment of HeLa cells with colchicine. […] Cells are washed 2×1 mL with PBS and blocked for 1 h in 5% donkey serum. […] Metamorph software is employed for imaging analysis.

[3] = administered by IV; cited from earlier work

Molecule	photolysis at 546 nm (LC/MS) [2]	photolysis at 646 nm (UV-Vis, LC/MS) [2]	photolysis at 730 nm (LC/MS) [2]	photolysis at 780 nm (LC/MS) [2]	further results
C/C1=C2/[N-]C([C@H](CC(N)=O)[C@@]2(C)CCC(=O)NC[C@@H](C)OP(=O)([O-])O[C@H]2[C@@H](O)[C@@H](n3cnc4cc(C)c(C)cc43)O[C@@H]2CO)[C@]2(C)N=C(/C(C)=C3N=C(/C=C4N=C1[C@@H](CCC(N)=O)C\4(C)C)[C@@H](CCC(N)=O)[C@]\3(C)CC(N)=O)[C@@H](CCC(N)=O)[C@]2(C)CC(N)=O.[CH2-][C@H]1O[C@@H](n2cnc3c(N)ncnc32)[C@@H](O)[C@@H]1O.[Co+3] [AdoCbl, Coenzyme B12, reference compound]	produces these products				rate of photolysis at 546 nm [1]: 1.7±0.2 μM^−1/m; photolysis at wavelengths beyond 600 nm (LC/MS) [2]: resistant to photolysis
C/C1=C2/[N-][C@H]([C@H](CC(N)=O)[C@@]2(C)CCC(=O)NC[C@H](C)OP(=O)([O-])O[C@H]2[C@@H](O)[C@@H](n3cnc4cc(C)c(C)cc43)O[C@@H]2CO)[C@]2(C)N=C(/C(C)=C3N=C(/C=C4N=C1[C@@H](CCC(N)=O)C\4(C)C)[C@@H](CCC(N)=O)[C@]\3(C)CC(N)=O)[C@@H](CCC(N)=O)[C@]2(C)CC(N)=O.[CH3-].[Co+3] [MeCbl, methylcobalamin]					photolysis rate [1]: 31700 ± 3300 M⁻¹ s⁻¹
COc1cc2c(c(OC)c1OC)-c1ccc(OC)c(=O)cc1[C@@H](NC(C)=O)CC2 [colchicine]					effect on tubulin networks (HeLa cells): tubulin networks become disrupted
Coenzyme B12-ATTO 725 Conjugate [AdoCbl-3]	complete photolysis	partial photolysis	complete photolysis	not at 780 nm	
Coenzyme B12-Dylight® 800 Conjugate [AdoCbl-4]	generated the expected adenosine products	resistant to photolysis	Partial photolysis	generated the expected adenosine products	
Coenzyme B12-SulfoCy5 Conjugate [AdoCbl-2]	produced adenosine products	produced adenosine products	unaffected	unaffected	
coenzyme B12-TAMRA conjugate [AdoCbl-1]	produces these products				rate of photolysis at 546 nm [1]: 2.9±0.3 μM^−1/m; photolysis at wavelengths beyond 600 nm (LC/MS) [2]: resistant to photolysis
αMSH: 13 amino acid α-melanocyte stimulating hormone					half life [3]: only a few minutes
